According to patent US12331040B2 (Karyopharm Therapeutics Inc., priority 2013, dated 2025):
Where two headings read alike, the source gives them in different places.

Tests used:
Experiment in all cases: MTT cell proliferation assay
Assay type in all cases: cell-based
[1] = system: MS751 cells; conditions: Homo sapiens, MS751, MS751 cells, approximately 64-72 hours incubation
Outline: (§1)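 5,000-10,000 cells/well, overnight attach; 8 conc., 1 nM–30 μM; MTT ~4 h; formazan solubilized, OD 490 nm; % inhibition = (1−(ODo/OD))×100 vs neg. control; mostly duplicate, mean±SE.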

[2] = system: 3T3 cells; conditions: Mus musculus, NIH3T3, approximately 64-72 hours incubation
Outline: as §1

[3] = system: Z138 cells; conditions: Homo sapiens, Z-138, Z138 cells, approximately 64-72 hours incubation
Outline: as §1

[4] = read-out: MTT Assay IC50 MS-751
[5] = read-out: MTT Assay IC50, MS-751
[6] = read-out: MTT Assay IC50, Z-138

SMILES	IC50 [1, 4] [µM]	IC50 ([2]; read-out: MTT Assay IC50 3T3) [µM]	IC50 ([3]; read-out: MTT Assay IC50 Z-138) [µM]	IC50 [1, 5] [µM]	IC50 ([2]; read-out: MTT Assay IC50, 3T3) [µM]	IC50 [3, 6] [µM]
CC1(F)CN(C(=O)c2ccc(-c3cc(Cl)c4oc(CNC(=O)/C=C/c5ccc(N)nc5)cc4c3)cc2)C1 [Compound 599, (E)-3-(6-aminopyridin-3-yl)-N-((7-chloro-5-(4-(3-fluoro-3-methylazetidine-1-carbonyl)phenyl)benzofuran-2-yl)methyl)acrylamide]	0.1 to 5	5 to 10	0.1 to 5	–	–	–
CC(C)(C)c1cc(-c2ccc(C(=O)N3CCOCC3)cc2)cc2cc(CNC(=O)/C=C/c3ccc(N)nc3)oc12 [Compound 511, (E)-3-(6-aminopyridin-3-yl)-N-((7-tert-butyl-5-(4-(morpholine-4-carbonyl)phenyl)benzofuran-2-yl)methyl)acrylamide]	0.1 to 5	> 10	0.1 to 5	–	–	–
Nc1ccc(/C=C/C(=O)NCc2cc3ccc(-c4ccc(C(=O)N5CCC(F)(F)CC5)cn4)cc3o2)cn1 [Compound 718, (E)-3-(6-Aminopyridin-3-yl)-N-((6-(5-(4,4-difluoropiperidine-1-carbonyl)pyridin-2-yl)benzofuran-2-yl)methyl)acrylamide]	–	–	–	0.1 to 5	> 10	0.1 to 5
Nc1ccc(/C=C/C(=O)NCc2cc3cc(-c4ccc(C(=O)N5CCC(F)(F)CC5)s4)cc(C(F)(F)F)c3o2)cn1 [Compound 685, (E)-3-(6-aminopyridin-3-yl)-N-((5-(5-(4,4-difluoropiperidine-1-carbonyl)thiophen-2-yl)-7-(trifluoromethyl)benzofuran-2-yl)methyl)acrylamide]	–	–	–	0.1 to 5	> 10	0.1 to 5
Nc1ccc(/C=C/C(=O)NCc2cc3cc(-c4cnc(C(=O)N5CCOCC5)c(F)c4)cc(Cl)c3o2)cn1 [Compound 544, (E)-3-(6-aminopyridin-3-yl)-N-((7-chloro-5-(5-fluoro-6-(morpholine-4-carbonyl)pyridin-3-yl)benzofuran-2-yl)methyl)acrylamide]	0.1 to 5	> 10	0.1 to 5	–	–	–
Nc1ccc(/C=C/C(=O)NCc2cc3cc(-c4cc(C(=O)N5CCOCC5)c(F)cn4)cc(Cl)c3o2)cn1 [Compound 588, (E)-3-(6-aminopyridin-3-yl)-N-((7-chloro-5-(5-fluoro-4-(morpholine-4-carbonyl)pyridin-2-yl)benzofuran-2-yl)methyl)acrylamide]	< 0.1	0.1 to 5	< 0.1	–	–	–
C[C@@H]1COCCN1C(=O)c1ccc(-c2cc(Cl)c3oc(CNC(=O)/C=C/c4ccc(N)nc4)cc3c2)cc1 [Compound 516, (R,E)-3-(6-aminopyridin-3-yl)-N-((7-chloro-5-(4-(3-methylmorpholine-4-carbonyl)phenyl)benzofuran-2-yl)methyl)acrylamide]	0.1 to 5	> 10	0.1 to 5	–	–	–
Nc1ccc(/C=C/C(=O)NCc2cc3cc(-c4ccc(C(=O)N5CC(F)C5)cc4)cc(C(F)(F)F)c3o2)cn1 [Compound 524, (E)-3-(6-aminopyridin-3-yl)-N-((5-(4-(3-fluoroazetidine-1-carbonyl)phenyl)-7-(trifluoromethyl)benzofuran-2-yl)methyl)acrylamide]	0.1 to 5	> 10	0.1 to 5	–	–	–
Nc1ccc(/C=C/C(=O)NCc2cc3cc(-c4ccc(C(=O)N5CCC(F)(F)CC5)cn4)cc(-c4nnco4)c3o2)cn1 [Compound 662, (E)-3-(6-aminopyridin-3-yl)-N-((5-(5-(4,4-difluoropiperidine-1-carbonyl)pyridin-2-yl)-7-(1,3,4-oxadiazol-2-yl)benzofuran-2-yl)methyl)acrylamide]	–	–	–	0.1 to 5	> 10	0.1 to 5
Nc1ccc(/C=C/C(=O)NCc2cc3cc(-c4ccc(C(=O)N5CCCCC5)cc4)cc(Cl)c3o2)cn1 [Compound 600, (E)-3-(6-aminopyridin-3-yl)-N-((7-chloro-5-(4-(piperidine-1-carbonyl)phenyl)benzofuran-2-yl)methyl)acrylamide]	5 to 10	> 10	0.1 to 5	–	–	–
Nc1ccc(/C=C/C(=O)NCc2cc3cc(-c4ccc(C(=O)N5CCC(F)(F)CC5)cc4)cc(-c4c(F)cc(F)cc4F)c3o2)cn1 [Compound 697, (E)-3-(6-aminopyridin-3-yl)-N-((5-(4-(4,4-difluoropiperidine-1-carbonyl)phenyl)-7-(2,4,6-trifluorophenyl)benzofuran-2-yl)methyl)acrylamide]	–	–	–	< 0.1	0.1 to 5	< 0.1
O=C(/C=C/c1cccnc1)NCc1cc2cc(-c3ccc(C(=O)N4CCC(F)(F)CC4)cc3F)cc(C(F)(F)F)c2o1 [Compound 684, (E)-N-((5-(4-(4,4-difluoropiperidine-1-carbonyl)-2-fluorophenyl)-7-(trifluoromethyl)benzofuran-2-yl)methyl)-3-(pyridin-3-yl)acrylamide]	–	–	–	0.1 to 5	> 10	0.1 to 5
Nc1ccc(/C=C/C(=O)NCc2cc3cc(-c4ccc(C(=O)N5CCC(F)(F)C5)cc4)cc(C(F)(F)F)c3o2)cn1 [Compound 603, (E)-3-(6-aminopyridin-3-yl)-N-((5-(4-(3,3-difluoropyrrolidine-1-carbonyl)phenyl)-7-(trifluoromethyl)benzofuran-2-yl)methyl)acrylamide]	0.1 to 5	> 10	0.1 to 5	–	–	–
CN1Cc2cc(-c3cc(Cl)c4oc(CNC(=O)/C=C/c5ccc(N)nc5)cc4c3)ccc2C1=O [Compound 513, (E)-3-(6-aminopyridin-3-yl)-N-((7-chloro-5-(2-methyl-1-oxoisoindolin-5-yl)benzofuran-2-yl)methyl)acrylamide]	> 10	> 10	0.1 to 5	–	–	–
Nc1ccc(/C=C/C(=O)NCc2cc3cc(-c4ccc(F)c(C(=O)N5CCOCC5)n4)cc(C(F)(F)F)c3o2)cn1 [Compound 579, (E)-3-(6-aminopyridin-3-yl)-N-((5-(5-fluoro-6-(morpholine-4-carbonyl)pyridin-2-yl)-7-(trifluoromethyl)benzofuran-2-yl)methyl)acrylamide]	< 0.1	> 10	< 0.1	–	–	–
Nc1ccc(/C=C/C(=O)NCc2cc3cc(-c4ccc(C(=O)N5CC6(CCO6)C5)cn4)cc(C(F)(F)F)c3o2)cn1 [Compound 634, (E)-N-((5-(5-(1-oxa-6-azaspiro[3.3]heptane-6-carbonyl)pyridin-2-yl)-7-(trifluoromethyl)benzofuran-2-yl)methyl)-3-(6-aminopyridin-3-yl)acrylamide]	0.1 to 5	> 10	0.1 to 5	–	–	–
Nc1ccc(/C=C/C(=O)NCc2cc3cc(-c4ccc(C(=O)N5CC6CC(C5)O6)cn4)cc(C(F)(F)F)c3o2)cn1 [Compound 626, (E)-N-((5-(5-(6-oxa-3-azabicyclo[3.1.1]heptane-3-carbonyl)pyridin-2-yl)-7-(trifluoromethyl)benzofuran-2-yl)methyl)-3-(6-aminopyridin-3-yl)acrylamide]	0.1 to 5	> 10	0.1 to 5	–	–	–
Nc1ccc(/C=C/C(=O)NCc2cc3cc(C4CC4C(=O)N4CCC(F)(F)CC4)cc(C(F)(F)F)c3o2)cn1 (stereo not drawn) [Compound 695, (E)-3-(6-aminopyridin-3-yl)-N-((5-(2-(4,4-difluoropiperidine-1-carbonyl)cyclopropyl)-7-(trifluoromethyl)benzofuran-2-yl)methyl)acrylamide]	–	–	–	0.1 to 5	> 10	0.1 to 5
Nc1ccc(/C=C/C(=O)NCc2cc3cc(-c4ccc(C(=O)N5CCNCC5)cn4)cc(Cl)c3o2)cn1 [Compound 589, (E)-3-(6-aminopyridin-3-yl)-N-((7-chloro-5-(5-(piperazine-1-carbonyl)pyridin-2-yl)benzofuran-2-yl)methyl)acrylamide]	0.1 to 5	> 10	< 0.1	–	–	–
CN1CCN(C(=O)c2ccc(-c3cc(Cl)c4oc(CNC(=O)/C=C/c5ccc(N)nc5)cc4c3)cc2)CC1 [Compound 576, (E)-3-(6-aminopyridin-3-yl)-N-((7-chloro-5-(4-(4-methylpiperazine-1-carbonyl)phenyl)benzofuran-2-yl)methyl)acrylamide]	0.1 to 5	> 10	0.1 to 5	–	–	–
Nc1ccc(/C=C/C(=O)NCc2cc3cc(-c4ccc5occc5c4)cc(-c4ccc(F)cc4F)c3o2)cn1 [Compound 759, (E)-3-(6-aminopyridin-3-yl)-N-((7-(2,4-difluorophenyl)-5,5′-bibenzofuran-2-yl)methyl)acrylamide]	–	–	–	0.1 to 5	> 10	< 0.1
Cc1noc(C)c1C(O)c1ccc(-c2cc(Cl)c3oc(CNC(=O)/C=C/c4ccc(N)nc4)cc3c2)s1 (stereo not drawn) [Compound 578, (E)-3-(6-aminopyridin-3-yl)-N-((7-chloro-5-(5-((3,5-dimethylisoxazol-4-yl)(hydroxy)methyl)thiophen-2-yl)benzofuran-2-yl)methyl)acrylamide]	5 to 10	> 10	5 to 10	–	–	–
Nc1ccc(/C=C/C(=O)NCc2cc3cc(-c4ccc(C(=O)N5CCC(Cl)CC5)cc4)cc(C(F)(F)F)c3o2)cn1 [Compound 607, (E)-3-(6-aminopyridin-3-yl)-N-((5-(4-(4-chloropiperidine-1-carbonyl)phenyl)-7-(trifluoromethyl)benzofuran-2-yl)methyl)acrylamide]	0.1 to 5	> 10	0.1 to 5	–	–	–
